The source of these data is publication PMC12390942, “Gut microbiota–derived metabolite trimethylamine N-oxide alters the host epigenome through inhibition of S-adenosylhomocysteine hydrolase” (The Journal of Biological Chemistry, 2025).

The target in test [1] is T1, S-adenosylhomocysteine hydrolase (AHCY) (Homo sapiens, UniProt P23526).
T1 construct: human full-length AHCY, N-terminal 6xHis tag
Kind of test: steady-state inhibition kinetics on purified recombinant AHCY, ADA-coupled, LC-MS quantification of inosine. Type of test: biochemical.

Test [2] concerns the target T1, S-adenosylhomocysteine hydrolase (AHCY). Kind of test: enzymatic turnover of SAH by purified recombinant AHCY, LC-MS quantification of adenosine. It counts as biochemical.

T1 sequence (P23526 whole entry): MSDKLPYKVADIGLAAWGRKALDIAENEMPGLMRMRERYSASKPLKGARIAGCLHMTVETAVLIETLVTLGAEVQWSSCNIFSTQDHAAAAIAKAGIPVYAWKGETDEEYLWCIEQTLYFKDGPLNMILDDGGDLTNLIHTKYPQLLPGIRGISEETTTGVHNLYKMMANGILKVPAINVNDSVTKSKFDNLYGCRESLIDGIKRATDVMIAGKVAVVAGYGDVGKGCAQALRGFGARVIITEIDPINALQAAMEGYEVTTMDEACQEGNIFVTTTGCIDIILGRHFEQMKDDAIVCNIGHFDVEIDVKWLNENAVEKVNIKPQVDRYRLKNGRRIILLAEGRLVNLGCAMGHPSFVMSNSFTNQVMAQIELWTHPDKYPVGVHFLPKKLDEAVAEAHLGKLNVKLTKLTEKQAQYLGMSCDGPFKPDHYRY

For orientation: Ki means the dissociation constant of the complex between target and ligand, obtained from inhibition or displacement. Regarding `C[N+](C)(C)[O-]` [TMAO], in test [1], the Ki was found to be 36.5 µM.

`Nc1ncnc2c1ncn2[C@@H]1O[C@H](CSCC[C@H](N)C(=O)O)[C@@H](O)[C@H]1O` [SAH]: in test [2], the “enzymatic turnover of SAH by purified recombinant AHCY, LC-MS quantification of” value is “purified AHCY revealed that SAH is converted to adenosine in an enzyme dependent fashion”.
